tested on: Trypanosoma brucei brucei; experiment: microbe, parasite or virus in culture; assay type: functional, organism-based, STIB 795; conditions: Trypanosoma brucei, STIB 795
Description: DNDI: Inhibition of Human African Trypanosomiasis (HAT), STIB 795, in vitro

IC50, > 10.4 µM:
COc1ccc2nc(C)cc(Nc3ccc(N4CCOCC4)cc3)c2c1
O=C(Nc1nc(-c2ccccn2)cc2ccccc12)c1cccc(Cl)c1
CN(C)S(=O)(=O)c1ccc2nc(NC(=O)c3cccs3)sc2c1
CCOC(=O)c1ccc(Nc2nc(-c3cccnc3)nc3ccccc23)cc1
CC1CCN(S(=O)(=O)c2ccc3c4c2CC(=O)N4CC(C)S3)CC1 (centres undefined)
Oc1c(C(c2ccccn2)N2CCCCC2)cc(Cl)c2cccnc12 (centres undefined)
CC(NC(=O)c1cc(S(=O)(=O)N2CCCC2)cn1C)c1ccccc1 (centres undefined)
CC(=O)C1=C(c2ccc(Br)cc2)C(=O)c2ccccc2C1=O
N#CC1=C(N)NC(SCc2ccc(F)cc2)=C(C#N)C12CCCCC2
Clc1ccc(-c2nnc(NCCN3CCCC3)c3ccccc23)cc1
CCOc1cc(CNC2CCCC2)cc(Cl)c1OCc1ccccc1
CCOc1cccc(CNCCO)c1OCc1ccc(Cl)cc1Cl
CC(NCC(O)COCCC12CC3CC(CC(C3)C1)C2)c1ccccc1 (centres undefined)
CN1CCC(Oc2ccccc2Sc2ccc(C(F)(F)F)cc2)CC1
N=c1n(Cc2ccccc2Cl)c2ccccc2n1CC(O)c1ccco1 (centres undefined)
O=C(N/N=C\c1c(O)ccc2ccccc12)c1ccc(Cn2cccn2)o1
O=C(CC1(O)C(=O)Nc2ccc(Br)cc21)c1ccccn1 (centres undefined)
C/C(=N\N1C(=O)c2ccccc2NC1c1ccco1)c1ccccc1O (centres undefined)
CCCC1(CCC)c2ccccc2C(=CCCN(C)C)c2ccccc21
CCOc1nc(Nc2ccc(Cl)cc2)nc(NC2CCCCC2)n1
Cc1cc(C(=O)N/N=C/c2cc(/N=N/c3ccccc3)ccc2O)[nH]n1
COC(=O)CCC/C=C1/SC[C@@H](NC(=O)c2ccccc2)/C1=N/O
N#Cc1c(N)nc(SCc2ccccc2)c(C#N)c1C1CCCCC1
OC(CNCCc1ccccc1)Cn1c2c(c3ccccc31)CCCC2 (centres undefined)
O=C(N/N=C/c1ccc(Br)cc1O)c1n[nH]c2c1CCC2
O=C(Nc1ccccc1C(=O)N/N=C/c1ccccc1O)c1ccco1
CC(=O)c1sc(Nc2nc(NC(C)C)nc(NC(C)C)n2)nc1C
N#Cc1c(Cl)ncc2c1Nc1ccccc1C2Sc1ccccc1 (centres undefined)
Cc1nc(N)nc(N)c1[C@@H]1CCC[C@@H](c2ccc(C(F)(F)F)cc2)C1
CCc1cc(-c2n[nH]c(C)c2-c2nc3ccccc3s2)c(O)cc1O
Nc1ccccc1SC(CC(=O)c1ccc(F)cc1)c1ccccc1 (centres undefined)
O=C1C(=O)N(Cc2cc(F)cc(F)c2)c2ccc(Br)cc21
O=C(O/N=C(/c1ccc2c(c1)OCO2)N1CCCCC1)c1ccccc1
C=CCNC(=O)CCCc1nc2cccnc2n1Cc1ccc(F)cc1
CC(C)(C)C(=O)Nc1cccc(NC(=O)c2ccc(C(C)(C)C)cc2)c1
CCCN1C/C(=C/c2cccc(F)c2)C(=O)/C(=C/c2cccc(F)c2)C1
O=C(N/N=C/c1cc(Cl)ccc1O)c1ccccc1Br
CC1(C)CC(=O)C(C2(O)C(=O)Nc3ccc(Br)cc32)CO1 (centres undefined)
NC(=S)N/N=C/c1ccc(OCc2c(Cl)cccc2Cl)cc1
COc1ccc(-c2noc(CCC(=O)Nc3ccncc3)n2)cc1OC
Cn1c(=O)n(C)c2cc(N3CCCCC3)c(NC(=O)c3ccco3)cc21
Cc1nc2ncnn2c(Sc2ccc(NC(=O)CC(C)C)cc2)c1C
CCOC(=O)Cc1csc(NC(=S)NC(=O)C2CCCCC2)n1
Clc1ccc(C(=C2CN3CCC2CC3)c2ccc(Cl)s2)s1
COc1ccccc1C(=O)NCCc1csc(-c2cccc(F)c2)n1
Fc1ccc(C2CCCN(CCN3CCCC3)c3cc(F)ccc32)cc1 (centres undefined)
Cc1nc(NC(C)(C)C)c2sc3nc4c(cc3c2n1)COC(C)(C)C4
O=C1c2ccc(Cl)c3c(Cl)ccc(c23)C(=O)N1Nc1ccccc1
CCC(C)(CC)c1ccc(C(CN)c2ccc(-c3ccccc3)cc2)cc1 (centres undefined)
O=C(N/N=C/c1ccc(-c2ccc(Br)cc2)o1)c1ccco1
COc1ccc(-c2n/c(=N/c3ccccc3)sn2-c2ccccc2)cc1
Cc1ccc(Nc2nc3nonc3nc2NC(C)c2ccccc2)cc1C (centres undefined)
Cc1ccc(C2=NC(c3ccccc3F)NC(c3ccccc3O)C2)cc1 (centres undefined)
CC1(C)CC(NC(=O)c2ccc(C#Cc3ccccc3)cc2)CC(C)(C)N1
Fc1ccc(OCc2nn3c(-c4ccccc4Cl)nnc3s2)cc1
COc1ccccc1NCN1C(=O)C(=O)c2cc(Br)ccc21
CCOC(=O)c1c(C)[nH]c2c1-c1cc(Br)ccc1C(=O)C2=O
Cc1occc1C(=O)N/N=C/c1ccc(-c2ccc(Cl)cc2Cl)o1
Cc1cnn(-c2cc(N/N=C/c3cc(Cl)cc(Cl)c3O)ncn2)c1
C/C(=N\NC(=O)c1ccc(C)c(Br)c1)c1ccc(O)cc1O
C=C(CC(CN1CCOCC1)C(=O)c1ccccc1)C(=O)c1ccccc1 (centres undefined)
OC(CNCc1ccccc1)COc1cc2ccsc2c2ccccc12 (centres undefined)
CCN(CC(O)COCCC12CC3CC(CC(C3)C1)C2)C1CCCCC1 (centres undefined)
CC(C)(C)N(NC(=O)Nc1ccc(Cl)cc1)C(=O)c1ccccc1F
CN1CCC(C2Oc3ccc(F)cc3Sc3ccc(Cl)cc32)CC1 (centres undefined)
C=CCn1c(=O)c(=O)n(CCC(=O)NCc2cccnc2)c2ccccc21
COc1ccc(C(=O)CC(SCCO)c2ccc(F)cc2)cc1OC (centres undefined)
Cc1cc(C(=O)CN2CCCCC2)c(C)n1-c1ccc(Cl)c(Cl)c1
O=C(N/N=C/c1cc(Cl)ccc1O)c1cc(C2CC2)nc2ccccc12
COC(C(=O)NCc1ccc(Cl)cc1)(c1ccccc1)c1ccccc1
CCn1c2ccccc2c2cc(NC(=O)C(=O)NCCCN(C)C)ccc21
CCCC(=O)NC(c1ccc(SC)cc1)c1ccc2cccnc2c1O (centres undefined)
CC(C)(C)c1cc(C(c2ccncc2)N2CCCC2)cc(C(C)(C)C)c1O (centres undefined)
CC1CN(C(=O)c2ccc(COc3ccc(C(C)C)cc3)cc2)CC(C)O1 (centres undefined)
O=C(Nc1ccc(Cl)c(-c2nc3ncccc3o2)c1)c1cccc(F)c1
COC(=O)C1=C(C)N(c2ccccc2)/C(=C/c2cccc3ccccc23)C1=O
CCN(CC)C(=O)c1ccc(Nc2ccnc3cc4ccccc4cc23)cc1
O=C(N/N=C/c1cc(Cl)cc(Br)c1O)c1ccccc1O
Cn1c(NC(=O)c2ccccc2NC(=O)c2ccccc2)nc2ccccc21
CN(C)c1ccc(C2(c3ccc(N(C)C)cc3)C=Cc3ccccc3O2)cc1
CCC(=O)N1CCN(c2oc(/C=C/c3ccc(Cl)cc3)nc2C#N)CC1
CNC(=O)c1c[nH]c2ccc(S(=O)(=O)Nc3ccccc3C)cc2c1=O
Cn1c(=O)sc2cc(S(=O)(=O)Nc3cccc4cccnc34)ccc21
CC(C)C(=O)NC(c1cccs1)c1cc(Cl)c2cccnc2c1O (centres undefined)
